Consider three compounds from patent publication US8334316B2, “Substituted organosulfur compounds and methods of using thereof” (ACEA Biosciences, Inc., priority 2004, dated 2012).

One series relates to HCT-8 human colon cancer. Put plainly: HCT-8 human colon cancer xenograft in nude mice (Example 3). The conditions noted are these: for tumor inhibition rate %: vs solvent control. It counts as in vivo. From the text:
Both male and female mice were used. […] Test control. […] Preparation and Administration of Test Compounds. […] For human tumor xenograft model, all used materials, including animal food, animal cage, supporting materials and apparatus contacted by animals, were high-pressure sterilized. Nude mice were maintained in laminar flow shelves under SPF condition. After tumor transplantation, mouse weight and tumor size in each compound dosage group were dynamically monitored and plotted.

Series [1] concerns P388 lymphocytic leukemia. Put plainly: Murine P388 lymphocytic leukemia model (intraperitoneal transplantation), life span. It counts as in vivo, mouse. Conditions: for Average life span X ± SD: observed within 30 days. Here is the method:
Both male and female mice were used.
Preparation and Administration of Test Compounds.
To prepare cancer cells for the P388 murine lymphocytic leukemia model, ascites of a P388 leukemia-bearing mouse were removed under sterile condition. The ascites were diluted in normal saline (1:6 for ascites to normal saline) to prepare cell suspension. 0.2 mL of the cell suspension was then injected intraperitoneally. […] The life span of carrier mice was determined within 30 days. The life span ratio comparing to the negative control group of the carrier mice in each compound treatment group was calculated according to the formula: Life span ratio %=average life span for the compound treatment group/average life span for the negative control group×100% (4)

Series [2] relates to purified bovine brain tubulin. In words: In vitro microtubule assembly assay with pure (MAP-free) tubulin, light scattering OD400. It counts as biochemical. Here is the method: Microtubule Assembly Assays. Microtubule seeds were synthesized by incubating purified bovine brain tubulin with 1 mM GTP, 10% glycerol and 10% DMSO at 35° C. for 30 minutes, followed by shearing by passing the assembled microtubules 6 times through a 27 gauge needle. Microtubule assembly was assayed by adding 27.5 ul of microtubule seeds to spectrophotometer cuvettes (maintained at 35° C.) containing 247.5 ul purified bovine brain tubulin in a PEM-100 buffer (100 mM Pipes pH=6.8, 1 mM […], 1 mM MgSO4) supplemented with 1 mM GTP (and drug where applicable) and monitoring the OD400 for 2 hours. Since the compounds are dissolved in DMSO and DMSO can have a significant effect on microtubule assembly, DMSO was added to all cuvettes so as to equal the largest volume of drug added to reactions. It should be noted that the initial velocity of the microtubule assembly reactions is so fast that one can not always catch the initial rise on the light scattering profile because it is occurring while samples are being prepared. However, all samples start at the same optical density, since they are identical with the exception of the drug being introduced.

For a further series, the system named is mouse Lewis lung cancer. In words: In vivo antitumor efficacy, mouse Lewis lung cancer model, Example 3 (ACEA100108). Conditions: for Inhibition rate (%): vs solvent control.
Series [3] deals with purified bovine brain tubulin. In words: In vitro microtubule dynamics (dynamic instability) assay, video microscopy. The format is biochemical. Here is the method:
Tubulin Purification and Microtubule Dynamics Assays. Tubulin was purified, as described in the literature (“Kinetic stabilization of microtubule dynamic instability in vitro by vinblastine”, Toso, R. J., Jordan, […]., Matsumoto, B. and Wilson, L., Biochemistry, 1993, 32, 1285-1293). Briefly, microtubule-associated protein-rich bovine brain microtubule protein was prepared by three cycles of assembly and disassembly. Tubulin was purified from other microtubule proteins by elution through a Whatman P-11 phosphocellulose column equilibrated in PEM50 (50 mM Pipes, 1 mM MgSO4, 1 mM EGTA, 0.1 mM GTP). Purified tubulin (>99% pure) was drop-frozen in liquid nitrogen and stored at -70° C. […] The dynamics of individual microtubules were recorded at 37° C. using differential interference contrast enhanced video microscopy. The ends were designated as plus or minus on the basis of the growth rate, the number of microtubules that grew at opposite ends of the seeds, and the relative lengths of the microtubules (Panda, D., Goode, […]. and Wilson, L., Kinetic stabilization of microtubule dynamics at steady state by tau and microtubule-binding domains of tau, Biochemistry, 1995, 34, 11117-11127; Walker, R. A., O'Brien, […]., Voter, W. A., Erickson, H. P. and Salmon, E. D., Dynamic instability of individual microtubules analyzed by video light microscopy: rate constants and transition frequencies, J. Cell Biol. 1988, 107, 1437-1448). Plus ends were analyzed for 10 minutes per slide during the steady-state phase of polymerization ( 45 min after initiation of polymerization). Life histories of individual microtubules were collected as described by Panda et al. 1995 (Panda, D., Goode, […]. and Wilson, L., Kinetic stabilization of microtubule dynamics at steady state by tau and microtubule-binding domains of tau, Biochemistry, 1995, 34 11117-11127) with modifications. Data points were collected at 1-3 s intervals. […] Average rates, lengths and durations are the averages of independent events. The catastrophe frequency was calculated by dividing the number of shortening events by the total time of growth and attenuation tracked, and rescue frequency was calculated by dividing the number of rescue events by the total time of shortening tracked. To control for experimental error, each condition was filmed over multiple days using at least two distinct tubulin/GTP mixtures (2-3 slides each). No gross variation in microtubule dynamics was observed between mixtures or slides of a given condition. The concentration of drug used in dynamic instability assays was chosen by initially observing microtubules stabilized with half the concentration used in microtubule assembly assays.

Where [4] appears, read: 50 mg/kg/d iv x7 qd, 7 day after transplantation.
The mark [5] stands for this setting: 50 mg/kg/d iv x7 qd, 25 d (end), listed as ACEA100101.
Setting [6] is: 10 mg/kg/d iv x7 qd, 7 day after transplantation.

SMILES strings stand for the structures. Values joined by “and” are separate entries in the source; they are usually repeats but may differ in a detail not shown here. Identical values can stand only once. Marks after values point to notes of the source that are not given here.

Experimental for mouse Lewis lung cancer: For human tumor xenograft models, cancer cells were passed twice in vivo before being transplanted into the nude mice for the study. Cultured human cancer cells in flask were first xenograft-transplanted in immunodeficient nude mice. After the cancer cells grew to a tumor of certain sizes in the nude mice, the tumor was removed form the nude mice and tumor tissues were dissected. The cell suspensions were prepared from the dissected tumor tissue and transplanted back to immunodeficient nude mice again (i.e. the second passage of cancer cells in human cancer xenograft-transplanted model). After the cancer cells grew to certain size, the tumor was removed from nude mice and the tumor tissues were dissected. The cell suspensions were prepared from dissected tissues and were used for the study of human cancer xenograft models described here.
Both male and female mice were used. However, for each experiment, animals of same sex were used. For the mouse transplanted tumor model, the numbers of animals tested were as follows: 10 for each dose group, 10 for positive control group and 20 for negative control group. For human tumor xenograft model, the numbers of animals tested were as follows: 6 for each dose group, 6 for positive control group and 12 for negative control group.
Test control. For negative control, each mouse was administered intravenously with the solvent only having the same volume and same concentration as those used in high dose ACEA100108 test, once a day, for 7 consecutive days. […] In a reference group, DBTS was administered intravenously at 50 mg/kg, once a day for 7 consecutive days.
Preparation and Administration of Test Compounds. […] Each time before use, this solution was diluted in normal saline to achieve desired ACEA100108 concentrations. Each mouse (about 20 g in weight) was administered intravenously with the compound solution of 0.5 mL at a controlled injection speed of 0.5 ml/0.5 min. 24 hrs after the tumor transplantation, intravenous injections of compound solutions into carrier mice were performed once a day, for consecutive 7 or 10 days.
Preparation of Tumor Cells for Transplantation and Determination of Compound Efficacy. To prepare the cancer cells for mouse Lewis lung cancer model, human breast cancer xenograft model and human colon cancer xenograft model, the fast growing tumors were first removed from the transplanted tumor mice. The tumor tissues were dissected and tumor cell suspensions were prepared in normal saline to have a concentration of 2-4×10^7 cells/ml. 0.2 ml of cell suspension was subcutaneously injected into the axillary region (right-side) of each mouse. […] Between two and four weeks after transplantation, mice were sacrificed and the transplanted tumors were removed from experimental mice.

Turning to `c1ccc(CSSSCc2ccccc2)cc1` [DBTS, Dibenzyl trisulfide], in the series with HCT-8 human colon cancer (50 mg/kg/d iv x7 qd), the “TV inhibition rate % T/C” value turned out to be 32.17%, the “Tumor weight” value is listed as 0.825 ± 0.07 g and the “tumor inhibition rate %” value came out at 46.08%. Moreover, the “Mouse Body weight” value in the series on HCT-8 human colon cancer (50 mg/kg/d iv x7 qd, 0 Day (beginning), listed as ACEA100101) was 18.2 g and 18.2 ± 1.2 g. In addition, the “Mouse Body weight” value in the series on HCT-8 human colon cancer (50 mg/kg/d iv x7 qd, 7 d) was found to be 18.8 ± 1 g. Further, in the series with HCT-8 human colon cancer (setting [4]), the “Mice with palpable tumor / total mice” value was 4/6†† and the “Tumor volume (cm^3)” value was found to be 0.01 cm^3. Further, in the series on HCT-8 human colon cancer (50 mg/kg/d iv x7 qd, 14 d), the “Mouse Body weight” value was 19.5 ± 1 g and the “Tumor volume (cm^3)” value is on record as 0.031 ± 0.02 cm^3. Also, in the series on HCT-8 human colon cancer (50 mg/kg/d iv x7 qd, 21 d), the “Mouse Body weight” value came to 20.7 ± 0.8 g and the “Tumor volume (cm^3)” value was 0.204 ± 0.03 cm^3. In addition, in the series on HCT-8 human colon cancer (setting [5]), the “Mouse Body weight” value was 23.0 g and 23 ± 1.3 g; the “Tumor volume (cm^3)” value was 0.502 cm^3 and 0.502 ± 0.18 cm^3. Further, in series [1] (50 mg/kg/d iv x7 qd), the “animal No. beginning/end (survivors)” value is 10/0 and the “Average life span X ± SD” value came to 10.6 ± 1.26. In series [1] (50 mg/kg/d iv x7 qd, vs solvent control), the “Life span ratio %” value amounted to 109.28%. Also, in series [2] (all doses (especially prominent at 9 uM)), the “Effect on extent of microtubule assembly” value is reported as “inhibit the extent of microtubule assembly significantly”. Moreover, in the series on mouse Lewis lung cancer (25 mg/kg/d iv x7 qd), the “Animal No. beginning/end (survival)” value was 10/10, the “Animal weight (g) beginning” value worked out at 20.5 g, the “Animal weight (g) end” value was determined as 23.6 g and the “Tumor weight” value is reported as 1.14 ± 0.17 g. In addition, the “Inhibition rate (%)” value with mouse Lewis lung cancer (25 mg/kg/d iv x7 qd) came to 57.93%. Besides, in the series on mouse Lewis lung cancer (100 mg/kg/d iv x7 qd), the “Animal No. beginning/end (survival)” value is on record as 10/6, the “Animal weight (g) beginning” value is listed as 20.7 g and the “Animal weight (g) end” value stood at 23.1 g. Also, the “Tumor weight” value in the series on mouse Lewis lung cancer (100 mg/kg/d iv x7 qd (text: administered only 5 times because of toxicity)) amounted to 1.00 ± 0.15 g. Moreover, the “Inhibition rate (%)” value in the series on mouse Lewis lung cancer (100 mg/kg/d iv x7 qd (text: only 5 times because of toxicity)) amounted to 63.10%. Moreover, in series [3] (DBTS .1uM), the “% time spent in attenuation phase” value is recorded as 52%, the “% time spent in growth phase” value worked out at 45%, the “% time spent in shortening phase” value worked out at 3% and the Dynamicity is 1.72 um/min. In series [3] (DBTS .1uM), the “Frequency of transitions ± SD: Catastrophes” value is 0.17 ± 0.04 events/min, the “Frequency of transitions ± SD: Rescues” value stood at 5.3 ± 1.3 events/min, the “Frequency of transitions ± SD: Total” value is on record as 0.50 ± 0.07 events/min and the “Growth Rate ± SEM” value is 1.55 ± 0.1 um/min. In series [3] (DBTS .1uM), the “Mean duration of attenuation ± SEM” value is recorded as 2.15 ± 0.3 and the “Shortening Rate ± SEM” value is given as 35.40 ± 6.0 um/min. Also, in series [3] (growth events, DBTS .1uM), the “Duration of Event” value was 2.21 ± 0.3 min and the “Length of Excursion” value is 3.34 ± 0.3 um. Further, in series [3] (plus ends, steady state), the “Effect on duration of growth events” value was “increase the average duration of growth events”; the “Effect on length of growth events” value was “increase the average duration of growth events and consequently the average length grown in a growth event”; the “Effect on length of shortening events” value is recorded as “reduced”; the “Effect on microtubule growth rate” value is recorded as “did not affect the microtubule growth rate”. For the same compound, the “Effect on percentage of time spent growing” value in series [3] (plus ends, steady state) is “increased the percentage of time spent growing”. Besides, in series [3] (shortening events, DBTS .1uM), the “Duration of Event” value is reported as 0.17 ± 0.04 min and the “Length of Excursion” value is recorded as 6.02 ± 0.3 um.
In the case of `CC(=O)O[C@H]1C(=O)[C@@]2(C)[C@H]([C@H](OC(=O)c3ccccc3)[C@]3(O)C[C@H](OC(=O)[C@H](O)[C@@H](NC(=O)c4ccccc4)c4ccccc4)C(C)=C1C3(C)C)[C@]1(OC(C)=O)CO[C@@H]1C[C@@H]2O` [Taxol, paclitaxel, reference compound], in the series with HCT-8 human colon cancer (10 mg/kg/d iv x7 qd), the “TV inhibition rate % T/C” value came to 44.45%, the “Tumor weight” value worked out at 1.02 ± 0.11 g and the “tumor inhibition rate %” value turned out to be 33.33%. Moreover, in the series with HCT-8 human colon cancer (setting [6]), the “Mice with palpable tumor / total mice” value is recorded as 6/6†† and the “Tumor volume (cm^3)” value is recorded as 0.01 cm^3. For the same compound, the “Tumor volume (cm^3)” value in the series on HCT-8 human colon cancer (10 mg/kg/d iv x7 qd, 14 d) worked out at 0.116 ± 0.03 cm^3. For the same compound, the “Tumor volume (cm^3)” value in the series on HCT-8 human colon cancer (10 mg/kg/d iv x7 qd, 25 d (end)) is 0.694 cm^3 and 0.694 ± 0.15 cm^3. In series [1] (10 mg/kg/d iv x7 qd), the “animal No. beginning/end (survivors)” value is 10/0 and the “Average life span X ± SD” value came out at 10.5 ± 1.18. In the series with mouse Lewis lung cancer (10 mg/kg/d iv x7 qd), the “Animal weight (g) beginning” value is 20.4 g, the “Animal weight (g) end” value is on record as 23.8 g, the “Tumor weight” value is reported as 1.52 ± 0.15 g and the “Inhibition rate (%)” value stood at 43.91%.
As for `Cc1cccc(CSSSCc2cccc(C)c2)c1` [ACEA100116, di(m-methylbenzyl)trisulfide], the “Effect on microtubule assembly” value in series [2] (9 uM and 27 uM) is reported as “promotes microtubule assembly”. In series [3] (plus ends, steady state), the “Effect on length of growth events” value was “little effect upon the length of growing events”, the “Effect on length of shortening events” value is reported as “strong effect upon the length of shortening events”, the “Effect on microtubule growth rate” value is “increased the growth rate” and the “Effect on rate of shortening” value is on record as “no effect upon the rate of shortening”.
